Source: article PMC3119931 (2011)
Values belong to the compound of their own block, whether it stands above or below them.

Key:
[1] = tested on: GRA (B. subtilis xpt-pbuX guanine riboswitch C74U aptamer domain) (RNA, riboswitch) GGACAUAUAAUCGCGUGGAUAUGGCACGCAAGUUUCUACCGGGCACCGUAAAUGUCCGAUUAUGUCC; test: 2-aminopurine displacement fluorescence competition; conditions: 100 mM KCl, 10 mM MgCl2, 50 mM Tris-HCl pH 8.3
[2] = tested on: GRA (B. subtilis xpt-pbuX guanine riboswitch C74U aptamer domain) (RNA, riboswitch) GGACAUAUAAUCGCGUGGAUAUGGCACGCAAGUUUCUACCGGGCACCGUAAAUGUCCGAUUAUGUCC; test: X-ray crystallography; conditions: cocrystal structure, 1.6 Å
[3] = tested on: GRA (B. subtilis xpt-pbuX guanine riboswitch C74U aptamer domain) (RNA, riboswitch) GGACAUAUAAUCGCGUGGAUAUGGCACGCAAGUUUCUACCGGGCACCGUAAAUGUCCGAUUAUGUCC; test: 2-aminopurine fluorescence titration; conditions: 100 mM KCl, 10 mM MgCl2; 50 mM Tris-HCl pH 8.3; RNA titrated into 200 nM 2-aminopurine
[4] = 2-aminopurine displaced (KL 140 nM), 243 nM RNA

SMILES: Cc1nc(N)nc(N)n1
- KD [1, 4]: 110 ± 30 µM

SMILES: Nc1cc(N)nc(N)n1
- binding constant [1, 4]: 0.014 ± 0.001 mM

SMILES: Nc1nc2[nH]nc(N)n2n1
- KD [1, 4]: 370 ± 40 µM

SMILES: Nc1nc(N)nc(Cl)n1
- binding ([1]; 2-aminopurine displaced, highest concentration tested 120 μM): no

More lines, now with the values ahead:

- binding [2]: yes
SMILES: CNc1ncnc2[nH]cnc12

- KD [1, 4]: 80 ± 20 µM
SMILES: Nc1ncnc(N)n1

- KL [3]: 140 nM
SMILES: Nc1ncc2[nH]cnc2n1
